Target: T1, IKBKB (IKK beta) (Homo sapiens, UniProt O14920)
T1 construct: purchased Thermo Fisher Scientific (Life Technologies) SelectScreen
Experiment: SelectScreen Z'LYTE
Format: biochemical
Outline: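 SelectScreen broad panel; activity (Z'LYTE, Adapta) plus binding formats. ATP: Km app for CSF1R Z'LYTE; 10 for CAMK1 Adapta. Readout = % per kinase.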

T1 sequence (O14920 whole entry): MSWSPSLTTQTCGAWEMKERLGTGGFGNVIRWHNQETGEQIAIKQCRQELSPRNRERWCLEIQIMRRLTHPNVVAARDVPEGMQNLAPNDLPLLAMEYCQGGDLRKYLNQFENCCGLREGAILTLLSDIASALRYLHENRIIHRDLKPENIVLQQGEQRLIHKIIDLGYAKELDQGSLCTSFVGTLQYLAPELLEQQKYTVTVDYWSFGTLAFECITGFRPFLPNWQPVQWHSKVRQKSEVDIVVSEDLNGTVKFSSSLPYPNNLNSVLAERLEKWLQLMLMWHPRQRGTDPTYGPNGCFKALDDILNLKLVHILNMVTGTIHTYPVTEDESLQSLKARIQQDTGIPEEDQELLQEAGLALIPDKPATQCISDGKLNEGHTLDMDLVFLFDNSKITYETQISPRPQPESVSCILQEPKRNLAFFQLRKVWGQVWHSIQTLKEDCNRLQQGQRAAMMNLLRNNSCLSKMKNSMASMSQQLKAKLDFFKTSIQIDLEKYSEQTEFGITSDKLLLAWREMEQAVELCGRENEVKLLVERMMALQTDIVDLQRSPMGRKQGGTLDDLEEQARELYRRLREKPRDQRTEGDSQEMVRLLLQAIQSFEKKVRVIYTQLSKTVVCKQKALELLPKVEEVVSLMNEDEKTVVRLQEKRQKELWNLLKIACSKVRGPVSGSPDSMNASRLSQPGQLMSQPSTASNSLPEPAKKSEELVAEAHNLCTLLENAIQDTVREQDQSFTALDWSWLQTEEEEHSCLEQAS

CN(C(=O)CN1CCOCC1)c1ccc2sc3c(-c4cccc5c(=O)cc(N6CC7CCC(C6)O7)oc45)cccc3c2c1 [NU5455]
inhibition at 1 µM: -0.6%
